How the values were obtained:
[1] = tested on: DNA2 (mismatched DNA, G→T); assay: Melting temperature (Tm) of PNA:DNA duplexes, single-mismatch DNA; assay type: binding
Description: (§1) Sequence selectivity is a very important issue in view of the use of PNAs in cellular systems, because partial hybridisation might occur with other unrelated miRNAs or, most importantly, with mRNA targets. We analysed the sequence selectivities of our PNAs with stricter models (DNA2 and RNA2) involving single base mismatches (G→T or G→U) located in the middle of the target sequences. In each case the sequence selectivity was confirmed by significant lowering of the melting temperature. The ranges of ΔTm due to the presence of these single mismatches were 8–21 °C for DNA, with the maximum drop in the case of PNA4 and the minimum observed in that of PNA6. For the latter it should be considered that the mismatch was facing the last chiral monomer, preventing the cooperative effect observed in the case of 2D-modifed highly constrained PNA.[22]
(§2) Measurements of Tm values: The Tm values were determined with a Lambda Bio 20 spectrophotometer and a Peltier PTP6 temperature programmer. Thermal denaturation profiles were measured by monitoring the absorbance at 260 nm from 18 to 90 °C with a heating rate of 1 °C min^−1 and recording every 0.1 °C. Measurement conditions: [PNA]=[DNA] or [RNA]=5 μM in PBS buffer [pH 7.0, NaCl (100 mM), NaH2PO4⋅H2O (10 mM), EDTA (0.1 mM)] with urea (5 M).

[2] = tested on: DNA1 (full-match antiparallel DNA); assay: Melting temperature (Tm) of PNA:DNA duplexes, full-match DNA; assay type: binding; conditions: UV absorbance at 260 nm, strand concentration 5 μM
Protocol: Measurements of Tm values: The Tm values were determined with a Lambda Bio 20 spectrophotometer and a Peltier PTP6 temperature programmer. Thermal denaturation profiles were measured by monitoring the absorbance at 260 nm from 18 to 90 °C with a heating rate of 1 °C min^−1 and recording every 0.1 °C. […]

[3] = tested on: RNA2 (mismatched RNA, G→U); assay: Melting temperature (Tm) of PNA:RNA duplexes, single-mismatch RNA; assay type: binding; conditions: UV absorbance at 260 nm, PBS buffer pH 7 with urea 5 M, strand concentration 5 μM
Description: as §1, §2

K562 cells = assay: Mithramycin-induced erythroid differentiation (benzidine-positive cells); assay type: cell-based, human; conditions: MTH 15 nM, PNA 2 μM, benzidine-positive cells after 5 days of induction, three independent experiments
Protocol: In order to evaluate effects on mithramycin-induced cellular differentiation, K562 cells were treated with MTH in the presence of pept-1, PNA1, PNA2 and PNA4 (each 2 μM). The proportions of benzidine-positive cells were determined after 5 days of induction.
Human cell lines and culture conditions: Human leukaemia K562 cells were cultured under humidified CO2 (5 %)/air in RPMI 1640 medium (Sigma) supplemented with foetal bovine serum (FBS, 10 %, Analitical de Mori, Milan, Italy), penicillin (50 units mL^−1) and streptomycin (50 μg mL^−1).[26] Mithramycin (MTH) was from Sigma. Stock solutions of MTH (100 μM) were stored at −20 °C in the dark and diluted immediately before use. Treatment of K562 cells with MTH was carried out by addition of the appropriate drug concentrations at the beginning of the cultures (cells were seeded at 30 000 mL^−1). The medium was not changed during the induction period. To determine antiproliferative activity, cell growth was studied by determining the cell number per mL with a Z1 Coulter Counter (Coulter Electronics, Hialeah, FL, USA). Erythroid differentiated K562 cells containing haemoglobin were detected by specific reaction with a benzidine/hydrogen peroxide solution as reported elsewhere.[26] The final concentration of benzidine was 0.2 % in glacial acetic acid (5 M) and H2O2 (10 %).

γ-globin gene expression = γ-globin gene expression by RT-qPCR; assay type: cell-based, human; conditions: mithramycin-treated (15 nM) K562 cells, PNA 2 μM single administration, 72 h, n=3
Protocol: The strong inhibition of miR-210 by PNA2 and PNA4 might thus result in appreciable reduction of γ-globin gene expression.
Figure 6 A) Effects of pept-1, PNA1, PNA2 and PNA4 molecules (each 2 μM) on γ-globin content in K562 cell cultures for 72 h with MTH (15 nM). Data are reported as arbitrary units relative to cells treated with pept-1 and MTH (average±SD, n=3, *: p<0.05, **: p<0.01). B), C) Effects of treatment (72 h) with pept-1, PNA1, PNA2 and PNA4 molecules on K562 cells induced to erythroid differentiation by MTH (15 nM): B) summary of three independent experiments, C) a representative experiment showing staining of the cells with benzidine.
The nucleotide sequences used for real-time qPCR analysis of γ-globin mRNAs were γ-globin forward primer (5′-TGGCAA GAAGGT GCTGAC TTC-3′), γ-globin reverse primer (5′-TCACTC AGCTGG GCAAAG G-3′) and γ-globin probe (5′-FAM-TGGGAG ATGCCA TAAAGC ACCTGG-TAMRA-3′).[25] The relative expression was calculated by the comparative cycle threshold method with endogenous control human 18S rRNA as reference genes.[25]

In the case of “H-C5LArgC5LArgG5LArgC5LArgT5LArgG5LArgT5LArgC5LArgACACGCACAG-NH2 [PNA4, 5L Arg (C5) backbone-modified 18-mer PNA, model 2, stretch of consecutive modified monomers]”, the “ΔTm due to single mismatch, DNA” value ([1]; DNA1 vs DNA2 (G→T in the middle of the target), urea 5 M) is reported as 21 °C, the “Tm, DNA2 in urea (5 M)” value ([1]; single mismatch, UV absorbance at 260 nm, PBS buffer pH 7 with urea 5 M, strand concentration 5 μM) is reported as 56 °C and the “Tm, DNA1 in urea (5 M)” value ([2]; PBS buffer pH 7 (NaCl 100 mM, NaH2PO4 10 mM, EDTA 0.1 mM) with urea 5 M) is reported as 77 °C. The “Tm, DNA1 in water” value ([2]; PBS buffer pH 7, no urea, 18 to 90 °C at 1 °C/min) was over 90 °C, the “Tm, RNA2 in urea (5 M)” value [3] was 75 °C and the “effect on MTH-induced erythroid differentiation” value (K562 cells) was “able to inhibit erythroid differentiation”. The “effect on γ-globin gene expression” value (γ-globin gene expression) was “inhibited γ-globin gene expression”.

Source: paper PMC3401907, “Cellular Uptakes, Biostabilities and Anti-miR-210 Activities of Chiral Arginine-PNAs in Leukaemic K562 Cells” (Chembiochem, 2012)
